Experimental data as given in publication PMC10935334, “Chemotherapeutic Activities of New η^6-p-Cymene Ruthenium(II) and Osmium(II) Complexes with Chelating SS and Tridentate SNS Ligands” (Molecules, 2024).

Columns and labels:
[1] = test system: cervical carcinoma (HeLa) cell line; experiment: MTT cell viability (cytotoxicity) assay in HeLa cells; format: cell-based, human
Text: The cytotoxicity of the arene-Ru and arene-Os complexes was investigated against HeLa and Hek293 cells. The former cell is a cervical cancer line, while the latter is a non-tumor kidney cell line used to examine tumor selectivity. […] Due to their relative inertness and sufficient stability under physiological conditions, osmium complexes are considered exciting alternatives to ruthenium-based anti-cancer agents.
Phosphate-buffered saline tablets (PBS), 3-(4,5-dimethylthiazol-2-yl)-2.5-diphenyltetrazolium bromide (MTT), and DMSO were obtained from Merck (Darmstadt, Germany). The human embryonic kidney (HEK293) and cervical carcinoma (HeLa) cell lines were sourced from the American Type Culture Collection (ATCC) (Manassas, VA, USA). […]
(§1) The cytotoxicity of the compounds was examined in the HeLa and HEK293 cells using the MTT assay. […] Absorbance measurements were then taken at 570 nm using a Mindray MR-96A microplate reader (Vacutec, Hamburg, Germany).

[2] = test system: human embryonic kidney (HEK293) cell line; experiment: MTT cell viability (cytotoxicity) assay in HEK293 cells; format: cell-based; details: 48 h incubation, non-tumor HEK293 cells, concentration needed to cause 50% net cell mortality
Text: The cytotoxicity of the arene-Ru and arene-Os complexes was investigated against HeLa and Hek293 cells. The former cell is a cervical cancer line, while the latter is a non-tumor kidney cell line used to examine tumor selectivity. […] These findings imply that the higher stability of the chelating (SS) and the pincer (SNS) ligand architectures in the complexes improve the biological (anti-proliferative) activity by rendering ligand dissociation less likely to occur under physiological conditions. The pincer (SNS) osmium complexes were more cytotoxic than their ruthenium analogues. […] These allow for more efficient interactions with biological target molecules. Osmium typically forms coordinative bonds with more inert bonds than in the analogous lighter homolog, ruthenium. Due to their relative inertness and sufficient stability under physiological conditions, osmium complexes are considered exciting alternatives to ruthenium-based anti-cancer agents. However, there was no apparent general pattern in the reactivity of the two metal centers and the isostructural ligand. […]
as §1

In the case of `Cn1ccn(CCn2ccn(C)c2=S)c1=S`, the melting point is reported as 195 to 197 °C.

In the case of `CCn1ccn(CCn2ccn(CC)c2=S)c1=S`, the melting point is reported as 131 to 133 °C.

In the case of `CCCn1ccn(CCn2ccn(CCC)c2=S)c1=S`, the melting point is reported as 91 to 92 °C.

`Cn1ccn(Cn2ccn(C)c2=S)c1=S` showed a melting point of 194 to 197 °C.

Compound `CCn1ccn(Cn2ccn(CC)c2=S)c1=S` has a melting point of 175 to 177 °C.

`Cn1ccn(Cc2cccc(Cn3ccn(C)c3=S)n2)c1=S` gave a melting point of 190 to 193 °C.

Compound `Cn1ccn(-c2cccc(-n3ccn(C)c3=S)n2)c1=S` has a melting point of 270 to 273 °C.

For `CC(C)n1ccn(-c2cccc(-n3ccn(C(C)C)c3=S)n2)c1=S`, the melting point was 189 to 190 °C.

For `O=c1[nH]cc(F)c(=O)[nH]1` [5-Fluorouracil, reference compound], the “Selectivity between tumor cells (HeLa) and normal cells (Hek293)” value ([1]; HeLa vs Hek293, MTT assay) was “selective toward the tumor cells”, the IC50 ([1]; Homo sapiens, MTT, 48 h incubation, HeLa cervical cancer cells, concentration needed to cause 50% net cell mortality) was 87 ± 15 µM and the IC50 [2] was 180 ± 20 µM.
